The text below walks through data of patent US20090047243A1, “COMBINATIONS FOR THE TREATMENT OF B-CELL PROLIFERATIVE DISORDERS” (priority 2007, published 2009).

Experiment [1] deals with phosphodiesterase (PDE) types. The conditions noted are these: PDE type(s) in brackets after the name; cited from earlier work.
The test system of experiment [2] is H929 multiple myeloma cell line. The experiment is described as follows: Anti-proliferation assay (ATPLite, 72 h). In kind it is cell-based, human. Details: key: S = lnfX·lnfY·ΣIdata(Idata−ILoewe), volume over Loewe additivity. On the procedure: (§1) ANBL6 and INA-6 culture media was also supplemented with 10 ng/ml IL-6. […] MM.1S, MM.1R, OCI-ly10, Karpas 422, and SU-DHL6 cells were provided by the Dana Farber Cancer Institute. H929, RPMI-8226, GA-10, and Farage cells were from ATCC (Cat #'s CCL-155, CRL-9068, CRL-2392 and CRL-2630 respectively). MOLP-8, EJM, KSM-12-PE, and OPM2 were from DSMZ. The ANBL6 and INA-6 cell lines were provided by the M. D. Anderson Cancer Research Center. Compounds were prepared in DMSO at 1000× the highest desired concentration. Master plates were generated consisting of serially diluted compounds in 2- or 3-fold dilutions in 384-well format. For single agent dose response curves, the master plates consisted of 9 individual compounds at 12 concentrations in 2- or 3-fold dilutions. For combination matrices, master plates consisted of individual compounds at 6 or 9 concentrations at 2- or 3-fold dilutions. […] To obtain combination data, two master plates were diluted into the assay plates. […] Thirty microliters of ATPLite (Perkin Elmer) at room temperature was then added to each well. […] Measurements were taken at the top of the well using a luminescence aperture and a read time of 0.1 seconds per well. The percent inhibition (% I) for each well was calculated using the following formula: % I=[(avg. untreated wells-treated well)/(avg. untreated wells)]×100. […] Negative inhibition values result from local variations in treated wells as compared to untreated wells. […] The uncertainty of each fitted parameter was estimated from the range over which the change in reduced chi-squared was less than one, or less than minimum reduced chi-squared if that minimum exceeded one, to allow for underestimated σI errors. Single agent curve data were used to define a dilution series for each compound to be used for combination screening in a 6×6 matrix format. […] The Loewe additivity model was used to quantify combination effects. […] A “Synergy Score” was also used, where the Synergy Score S=log fX log fY ΣIdata(Idata-ILoewe), summed over all non-single-agent concentration pairs, and where log fX,Y is the natural logarithm of the dilution factors used for each single agent. This effectively calculates a volume between the measured and Loewe additive response surfaces, weighted towards high inhibition and corrected for varying dilution factors. An uncertainty σS was calculated for each synergy score, based on the measured errors for the Idata values and standard error propagation.

Experiment [3] has as its system human multiple myeloma cells (MM.1S). The experiment is described as follows: Anti-proliferation assay (ATPLite, 72 h). The format is cell-based. Details: key to synergy score / synergy (score), PDEi × HE-NECA: S = lnfX·lnfY·ΣIdata(Idata−ILoewe), volume over Loewe additivity. On the procedure:
as §1
(In general: Cellular ATP, detected with luciferase, serves as a proxy for viable cell number.)

The test system of experiment [4] is human multiple myeloma cells (MM.1R) transfected with siRNA. The experiment is described as follows: Anti-proliferation assay after siRNA transfection. In kind it is cell-based. The conditions noted are these: MM.1R, siRNA targeting PDE 2A, HE-NECA 0 nM. On the procedure: siRNA to adenosine receptor A1, A2A, A3, PDE 2A, PDE 3B, PDE 4B, PDE 4D and PDE 7A, and control siRNA siCON were purchased from Dharmacon. A2B siRNA was purchased from Invitrogen. Electroporations were performed using an Amaxa Nucleoporator (program S-20) and solution V. siRNAs were used at 50 nM. […] RNA was isolated using Qiagen RNAeasy kits, and targets quantified by RT-PCR using gene specific primers purchased from Applied Biosystems.
Cells were added to 384-well plates 24 hours prior to compound addition such that each well contained 2000 cells in 35 μL of media. Master plates were diluted 100× (1 μL into 100 μL) into 384-well dilution plates containing only cell culture media. 4.5 μL from each dilution plate was added to each assay plate for a final dilution of 1000×. To obtain combination data, two master plates were diluted into the assay plates. Following compound addition, assay plates were kept at 37° C. and 5% CO2 for 72 hours. Thirty microliters of ATPLite (Perkin Elmer) at room temperature was then added to each well. Final amount of ATP was quantified within 30 minutes using ATPLite luminescent read-out on an Envision 2103 Multilabel Reader (Perkin Elmer). Measurements were taken at the top of the well using a luminescence aperture and a read time of 0.1 seconds per well.
We also examined the antiproliferative activity of adenosine receptor agonists when the MM cell line MM.1R was transfected with siRNA targeting the A1, A2A, A2B or A3 receptor. Specific gene silencing (A1, A2A, A2B, or A3) was greater than 50% as determined by real time PCR analysis 48 hours post-transfection. At 48 hours post-transfection, cells were exposed to adenosine receptor agonist, incubated an additional 72 hours, and compounds assayed for antiproliferative activity. Representative data is in Table 34. Cells transfected with adenosine receptor siRNA or a control siRNA (scrambled sequences designed so that cellular transcriptsare not targeted) were treated with the adenosine receptor agonist ADAC. […] Similar results were obtained with a second siRNA with specificity for different region of the A2A receptor mRNA, confirming that the reduction in adenosine receptor agonist activity is the result of specific siRNA targeting of the A2A receptor (data not shown).
In our experiments, PDE gene silencing was always greater than 50% as confirmed by real time PCR analysis 48 hours post-transfection. At 48 hours post-transfection, cells were exposed to adenosine receptor agonist and PDE inhibitor, incubated an additional 72 hours, and compounds assayed for antiproliferative activity. Representative data is in Tables 39-45. For each analysis, the activity of cells transfected with an siRNA targeting a specific PDE was compared to cells transfected with a control non-targeting siRNA (siCON).

Experiment [5] deals with RPMI-8226 multiple myeloma cell line. The experiment is described as follows: Anti-proliferation assay (ATPLite, 72 h). Set-up: key: S = lnfX·lnfY·ΣIdata(Idata−ILoewe), volume over Loewe additivity. In kind it is cell-based, human. On the procedure: as §1
Experiment [6] has as its system human multiple myeloma cells (MM.1R). The experiment is described as follows: Anti-proliferation assay (ATPLite, 72 h). Set-up: key: S = lnfX·lnfY·ΣIdata(Idata−ILoewe), volume over Loewe additivity. In kind it is cell-based. On the procedure:
as §1

The mark [7] stands for this setting: PDE inhibitor crossed with (S) ENBA, H929.
Where [8] appears, read: PDE inhibitor crossed with Chloro-IB-MECA, H929.
Setting [9] is: PDE inhibitor crossed with (S) ENBA, MM.1S.
[10] abbreviates: PDE inhibitor crossed with Chloro-IB-MECA, MM.1S.
Setting [11] is: PDE inhibitor crossed with HE-NECA, H929.
The mark [12] stands for this setting: PDE inhibitor crossed with HE-NECA, MM.1S.
Where [13] appears, read: PDE inhibitor crossed with ADAC, H929.
Where [14] appears, read: PDE inhibitor crossed with ADAC, MM.1S.

As to `Nc1nc(N)nc(-c2cc(Cl)ccc2Cl)n1` [Irsogladine], the “PDE inhibitors (specificity)” value in experiment [1] is given as “Irsogladine (4)”. Further, the synergy score in experiment [2] (setting [7]) stood at 0.09; in experiment [2] (setting [8]), 0.05; in experiment [3] (setting [9]), 0.38; in experiment [3] (setting [10]) it was 0.25.

With `COc1ccc([C@@H]2CNC(=O)C2)cc1OC1CCCC1` [R-(−)-Rolipram], the Antiproliferative activity in experiment [4] (R-(−)-Rolipram 0.23 μM) is 3.8; in experiment [4] (R-(−)-Rolipram 2 μM), 8.1; in experiment [4] (R-(−)-Rolipram 6.1 μM), 5.3; in experiment [4] (R-(−)-Rolipram 18 μM), 7.7; in experiment [4] (R-(−)-Rolipram […]), −1.2. For the same compound, the “synergy (score), PDEi × HE-NECA” value is 1.88 in experiment [2] (6×6 cross of PDE inhibitor or PDE inhibitor mixture with HE-NECA, H929) and 2.33 in experiment [3] (6×6 cross of PDE inhibitor or PDE inhibitor mixture with HE-NECA, MM.1S). The synergy score in experiment [2] (in combination with adenosine receptor agonist CGS-21680, H929) came out at 1.93; in experiment [2] (in combination with adenosine receptor agonist HE-NECA, H929), 2.148; in experiment [2] (in combination with adenosine receptor agonist regadenoson, H929) it was 1.91; in experiment [5] (in combination with adenosine receptor agonist CGS-21680, RPMI 8226), 2.03; in experiment [5] (in combination with adenosine receptor agonist HE-NECA, RPMI-8226), 1.16; in experiment [5] (in combination with adenosine receptor agonist regadenoson, RPMI 8226), 0.63. Further, the synergy score in experiment [6] (in combination with adenosine receptor agonist CGS-21680, MM.1R) was determined as 4.54; in experiment [6] (in combination with adenosine receptor agonist regadenoson, MM.1R), 3.62; in experiment [3] (in combination with adenosine receptor agonist CGS-21680, MM.1S), 1.92; in experiment [3] (in combination with adenosine receptor agonist HE-NECA, MM.1S) it was 2.965; in experiment [3] (in combination with adenosine receptor agonist regadenoson, MM.1S), 1.83.

In the case of `Cc1[nH]c(=O)c(C#N)cc1-c1ccncc1` [milrinone], the “PDE inhibitors (specificity)” value in experiment [1] is “Milrinone (3)”. Also, the synergy score in experiment [2] (setting [8]) is 0.08; in experiment [2] (setting [11]), 0.15; in experiment [3] (setting [9]) it was 1.31; in experiment [3] (setting [10]), 0.25; in experiment [3] (setting [12]) it was 0.33.

As to (R)-Rolipram, the “PDE inhibitors (specificity)” value in experiment [1] is “(R)-Rolipram (4)”. For the same compound, the synergy score in experiment [2] (setting [7]) was 0.82; in experiment [2] (setting [13]), 0.51; in experiment [2] (setting [8]), 0.63; in experiment [2] (setting [11]), 2.51; in experiment [3] (setting [9]) it was 2.08; in experiment [3] (setting [14]), 0.97. Also, the synergy score was 0.84 in experiment [3] (setting [10]) and 4.38 in experiment [3] (setting [12]).

`CCOC(=O)C1=C[C@]2(CC)CCCN3CCc4c(n1c1ccccc41)[C@@H]32` [Vinoceptine]: the “PDE inhibitors (specificity)” value in experiment [1] is given as “Vinoceptine (1)”. Also, the synergy score came out at 0.21 in experiment [2] (setting [7]); 0.01 in experiment [2] (setting [13]); 0 in experiment [2] (setting [11]); 0.25 in experiment [3] (setting [9]); 0.02 in experiment [3] (setting [14]); 0.26 in experiment [3] (setting [12]).

Regarding `CN/C(=N\c1ccc(C2=NNC(=O)CC2C)cc1)NC#N` (stereo not shown) [Siguazodan], the “PDE inhibitors (specificity)” value in experiment [1] was “Siguazodan (3)”. Moreover, the synergy score in experiment [2] (setting [7]) came to 0.13; in experiment [2] (setting [8]) it was 0.09; in experiment [2] (setting [11]), 0.08; in experiment [3] (setting [9]), 1.39; in experiment [3] (setting [10]), 0.42; in experiment [3] (setting [12]), 0.72.

As for `CC(C)Cn1c(=O)n(C)c(=O)c2[nH]cnc21` [IBMX], the “PDE inhibitors (specificity)” value in experiment [1] is “IBMX (pan)”. Moreover, in experiment [3] (setting [9]), the synergy score is reported as 0.055.

`CC(=O)CCCCn1c(=O)c2c(ncn2C)n(C)c1=O` [Pentoxifylline]: in experiment [1], the “PDE inhibitors (specificity)” value is given as “Pentoxifylline (pan)”. Also, the synergy score in experiment [2] (setting [7]) was 0.02; in experiment [2] (setting [8]) it was 0.02; in experiment [2] (setting [11]) it was 0.09; in experiment [3] (setting [9]), 0.49; in experiment [3] (setting [10]) it was 0.05; in experiment [3] (setting [12]), 0.29.
